Assay results reported in the NIST ThermoML archive (doi:10.1021/je500153g).
± gives the expanded uncertainty stated by the source.

Tests used:
[1] = 101 kPa, Liquid; for viscosity: Concentric cylinders viscometry; for mass density: Vibrating tube method
[2] = xn = mol fraction of the nth substance listed; conditions: 101 kPa, Liquid; for viscosity: Concentric cylinders viscometry; for mass density: Vibrating tube method

CCC(C)O (stereo not given) [butan-2-ol]
[1]
Conditions	mass density [kg/m3]	viscosity [mPa·s]
303.15 K	799.3 ± 0.4	2.51 ± 0.02
313.15 K	790.7 ± 0.4	1.78 ± 0.02
323.15 K	781.7 ± 0.4	1.31 ± 0.01
333.15 K	772.1 ± 0.4	0.99 ± 0.01
343.15 K	762 ± 0.4	0.78 ± 0.01

CCC(C)O (stereo not given) [butan-2-ol] + O=S1(=O)CCCC1
[2], x2 = 0
Conditions	mass density [kg/m3]	viscosity [mPa·s]
303.15 K	799.3 ± 0.4	2.51 ± 0.02
313.15 K	790.7 ± 0.4	1.78 ± 0.02
323.15 K	781.7 ± 0.4	1.31 ± 0.01
333.15 K	772.1 ± 0.4	0.99 ± 0.01
343.15 K	762 ± 0.4	0.78 ± 0.01

OCCOCCO [diethylene glycol]
[1]
Conditions	mass density [kg/m3]	viscosity [mPa·s]
303.15 K	1110 ± 0.5	22.5 ± 0.2
313.15 K	1103 ± 0.5	14.9 ± 0.1
323.15 K	1095.9 ± 0.5	10.4 ± 0.1
333.15 K	1088.5 ± 0.5	7.6 ± 0.06
343.15 K	1081.1 ± 0.5	5.75 ± 0.05

OCCOCCO [diethylene glycol] + O=S1(=O)CCCC1
[2], x2 = 0
Conditions	mass density [kg/m3]	viscosity [mPa·s]
303.15 K	1110 ± 0.5	22.5 ± 0.2
313.15 K	1103 ± 0.5	14.9 ± 0.1
323.15 K	1095.9 ± 0.5	10.4 ± 0.1
333.15 K	1088.5 ± 0.5	7.6 ± 0.06
343.15 K	1081.1 ± 0.5	5.75 ± 0.05

CC(C)O [propan-2-ol]
[1]
Conditions	mass density [kg/m3]	viscosity [mPa·s]
303.15 K	777.5 ± 0.4	1.78 ± 0.02
313.15 K	768.8 ± 0.4	1.34 ± 0.01
323.15 K	759.7 ± 0.4	1.03 ± 0.01
333.15 K	750 ± 0.4	0.79 ± 0.01
343.15 K	739.5 ± 0.4	0.64 ± 0.01

CC(C)O [propan-2-ol] + O=S1(=O)CCCC1
[2], x2 = 0
Conditions	mass density [kg/m3]	viscosity [mPa·s]
303.15 K	777.5 ± 0.4	1.78 ± 0.02
313.15 K	768.8 ± 0.4	1.34 ± 0.01
323.15 K	759.7 ± 0.4	1.03 ± 0.01
333.15 K	750 ± 0.4	0.79 ± 0.01
343.15 K	739.5 ± 0.4	0.64 ± 0.01

O=S1(=O)CCCC1 [sulfolane]
[1]
Conditions	mass density [kg/m3]	viscosity [mPa·s]
303.15 K	1262.9 ± 0.6	10.4 ± 0.1
313.15 K	1254.1 ± 0.6	8.07 ± 0.07
323.15 K	1245.2 ± 0.6	6.45 ± 0.06
333.15 K	1236.6 ± 0.6	5.22 ± 0.05
343.15 K	1228.1 ± 0.6	4.32 ± 0.04

O=S1(=O)CCCC1 [sulfolane] + OCCOCCOCCO
[2], x1 = 1
Conditions	mass density [kg/m3]	viscosity [mPa·s]
303.15 K	1262.9 ± 0.6	10.4 ± 0.1
313.15 K	1254.1 ± 0.6	8.07 ± 0.07
323.15 K	1245.2 ± 0.6	6.45 ± 0.06
333.15 K	1236.6 ± 0.6	5.22 ± 0.05
343.15 K	1228.1 ± 0.6	4.32 ± 0.04

OCCOCCOCCO [triethylene glycol]
[1]
Conditions	mass density [kg/m3]	viscosity [mPa·s]
303.15 K	1116.5 ± 0.5	29.5 ± 0.3
313.15 K	1108.9 ± 0.5	19.3 ± 0.2
323.15 K	1101.1 ± 0.5	13.3 ± 0.1
333.15 K	1093.4 ± 0.5	9.58 ± 0.08
343.15 K	1085.5 ± 0.5	7.16 ± 0.06
